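Each compound was tested at five concentrations against cells in 96-well plates for 48 hours. GI50: concentration for 50% inhibition of growth. TGI denotes the concentration required for complete inhibition of growth.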
What was measured:
Test in all cases: growth of human tumour cells (NCI), 48 h
[1] = system: NCI-H522 lung
[2] = system: NCI-H460 lung
[3] = system: UACC-257 melanoma
[4] = system: RXF 393 renal
[5] = system: OVCAR-3 ovarian
[6] = system: SN12C renal
[7] = system: OVCAR-5 ovarian
[8] = system: SNB-19 CNS
[9] = system: HOP-62 NSCLC
[10] = system: SK-OV-3 ovarian

O=[N+]([O-])c1cc(Cl)c2[nH]c3c(Cl)cc([N+](=O)[O-])cc3c2c1
GI50 [1]: 0.286 µM
TGI [1]: > 100 µM
GI50 [2]: 0.311 µM
TGI [2]: > 100 µM
GI50 [3]: 0.159 µM
TGI [3]: 0.996 µM
GI50 [4]: 0.461 µM
TGI [4]: 18.8 µM
GI50 [5]: 0.279 µM
TGI [5]: > 100 µM
GI50 [6]: 0.296 µM
TGI [6]: > 100 µM
GI50 [7]: 1.33 µM
TGI [7]: > 29.5 µM
GI50 [8]: 0.357 µM
TGI [8]: > 100 µM
GI50 [9]: 0.971 µM
TGI [9]: > 38.4 µM
GI50 [10]: 0.468 µM
TGI [10]: 5.8 µM

Nc1nonc1-c1nc2cnccc2n1C1CC1
GI50 [1]: 3.43 µM
TGI [1]: 13.2 µM
GI50 [2]: 6.83 µM
TGI [2]: > 25 µM
GI50 [3]: 18.1 µM
TGI [3]: > 25 µM
GI50 [4]: 1.2 µM
TGI [4]: 6.92 µM
GI50 [5]: 7.55 µM
TGI [5]: > 25 µM
GI50 [6]: 7.03 µM
TGI [6]: > 25 µM
GI50 [7]: 5.14 µM
TGI [7]: > 25 µM
GI50 [8]: 12 µM
TGI [8]: > 25 µM
GI50 [9]: 5.33 µM
TGI [9]: > 16.8 µM
GI50 [10]: 4.36 µM
TGI [10]: 18.4 µM

O=C(O)c1ccc(NCn2nc(-c3ccccc3O)oc2=S)cc1
GI50 [1]: > 100 µM
TGI [1]: > 100 µM
GI50 [2]: 40.5 µM
TGI [2]: > 100 µM
GI50 [3]: > 100 µM
TGI [3]: > 100 µM
GI50 [4]: 67.9 µM
TGI [4]: > 100 µM
GI50 [5]: > 100 µM
TGI [5]: > 100 µM
GI50 [6]: 50.5 µM
TGI [6]: > 100 µM
GI50 [7]: > 100 µM
TGI [7]: > 100 µM
GI50 [8]: > 100 µM
TGI [8]: > 100 µM
GI50 [9]: 47.2 µM
TGI [9]: > 100 µM

O=C(CCC(=O)Nc1ccc(Cl)c(Cl)c1)CC(=O)c1ccc(Br)cc1
TGI [1]: > 100 µM
TGI [3]: > 100 µM
TGI [4]: > 100 µM
TGI [5]: > 100 µM
TGI [6]: > 100 µM
TGI [7]: > 100 µM
TGI [8]: > 100 µM
TGI [10]: > 100 µM

CCc1ccc(NC(=O)NC(=O)c2ccccc2[N+](=O)[O-])cc1Oc1ncc(Cl)cn1
TGI [2]: 0.0508 µM
TGI [3]: > 100 µM
TGI [4]: 73.4 µM
TGI [5]: 13.9 µM
TGI [6]: > 100 µM
TGI [7]: > 100 µM
TGI [8]: > 100 µM
TGI [9]: 75.3 µM
TGI [10]: > 100 µM

COc1ccc2cc(/C=C/C(=O)c3ccc(Cl)cc3Cl)ccc2c1
GI50 [1]: 21.6 µM
TGI [1]: > 100 µM
GI50 [2]: 27.4 µM
TGI [2]: > 100 µM
GI50 [3]: 39.5 µM
TGI [3]: > 100 µM
GI50 [4]: 20.4 µM
TGI [4]: 65.6 µM
GI50 [5]: 26.2 µM
TGI [5]: > 100 µM
GI50 [6]: 20.3 µM
TGI [6]: 50.9 µM
GI50 [7]: 45.7 µM
TGI [7]: > 100 µM
GI50 [9]: 39.3 µM
TGI [9]: > 100 µM

Cc1[nH]nc(C(F)(F)F)c1N=NN(C)C
TGI [1]: 2.98 µM
TGI [2]: 26.6 µM
TGI [3]: 28.2 µM
TGI [4]: 26.5 µM
TGI [5]: 22.1 µM
TGI [6]: 30.1 µM
TGI [8]: 28.8 µM
TGI [9]: 27 µM
TGI [10]: 25 µM

CC1=C[C@H]2c3c([nH]c4ccccc34)C(c3c[nH]c4ccccc34)[C@H]2CC1 (stereo partly specified)
TGI [1]: 18.5 µM
TGI [2]: 8.21 µM
TGI [3]: 27.9 µM
TGI [4]: 4.19 µM
TGI [6]: 12.9 µM
TGI [10]: 26.6 µM

C=CCn1c(C)nc2ccc(Nc3nc(Nc4ccc(F)cc4)nc4ccccc34)cc21
GI50 [1]: 3.12 µM
TGI [1]: 13.4 µM
GI50 [2]: 3.11 µM
TGI [2]: 14.5 µM
GI50 [3]: 13.1 µM
TGI [3]: 29.9 µM
GI50 [4]: 1.23 µM
TGI [4]: 2.57 µM
GI50 [5]: 5.04 µM
TGI [5]: 17.8 µM
GI50 [6]: 2.78 µM
TGI [6]: 15.1 µM
GI50 [7]: 11.6 µM
TGI [7]: 26.6 µM
GI50 [8]: 9 µM
TGI [8]: 23.8 µM

COc1cccc(/C(C#N)=C/c2nc3c(N4CCOCC4)nc(Cl)nc3n2C)c1
GI50 [1]: 0.567 µM
TGI [1]: 2.2 µM
GI50 [2]: 1.71 µM
TGI [2]: 3.65 µM
GI50 [3]: 1.41 µM
TGI [3]: 2.9 µM
GI50 [4]: 1.02 µM
TGI [4]: 2.23 µM
GI50 [5]: 0.611 µM
TGI [5]: 1.92 µM
GI50 [6]: 1.1 µM
TGI [6]: 2.45 µM
GI50 [7]: 1.55 µM
TGI [7]: 3.57 µM
GI50 [9]: 1.6 µM
TGI [9]: 3.64 µM
GI50 [10]: 5.42 µM
TGI [10]: 18.3 µM

CC1/C=C/[C@@]2(C)CCC(C(C)(C)O)C2C(O)C[C@](C)(O)/C=C/C1 (stereo partly specified)
TGI [2]: > 100 µM
TGI [3]: > 100 µM
TGI [4]: > 100 µM
TGI [5]: > 100 µM
TGI [6]: > 100 µM
TGI [7]: > 100 µM
TGI [8]: > 100 µM
TGI [9]: > 100 µM
TGI [10]: > 100 µM

COc1cc(C2SCCCCCCCCCCSC(c3ccc(O)c(OC)c3)SCCCCCCCCCCS2)ccc1O (stereo unspecified)
TGI [1]: > 100 µM
TGI [3]: > 100 µM
TGI [4]: > 100 µM
TGI [6]: > 100 µM
TGI [7]: > 100 µM
TGI [8]: > 100 µM
TGI [9]: > 100 µM
TGI [10]: > 100 µM

CC(C)(C)c1cc(C(O)(C(F)(F)F)C(F)(F)F)c2c(c1)C(C(F)(F)F)(C(F)(F)F)OC(C)(C(C)(C)C)N2 (stereo unspecified)
TGI [1]: 5.24 µM
TGI [2]: 9.25 µM
TGI [3]: 27.4 µM
TGI [4]: 16.2 µM
TGI [5]: 9.18 µM
TGI [6]: 16.8 µM
TGI [7]: > 100 µM
TGI [8]: > 100 µM
TGI [10]: 6.14 µM

CCOC(=O)C(=O)Nc1ccccc1C
TGI [1]: > 100 µM
TGI [2]: > 100 µM
TGI [4]: > 100 µM
TGI [6]: > 100 µM
TGI [7]: > 100 µM
TGI [8]: > 100 µM
TGI [9]: > 100 µM
TGI [10]: > 100 µM

CC(Oc1ccc2c(-c3ccccc3)cc(=O)oc2c1)C(=O)O (stereo unspecified)
TGI [1]: > 100 µM
TGI [2]: > 100 µM
TGI [3]: > 100 µM
TGI [4]: > 100 µM
TGI [5]: > 100 µM
TGI [6]: > 100 µM
TGI [8]: > 100 µM
TGI [9]: > 100 µM
TGI [10]: > 100 µM

Cc1ccccc1NC(=O)c1cc(-c2ccc([N+](=O)[O-])cc2)nc(=S)[nH]1
TGI [2]: > 100 µM
TGI [3]: > 100 µM
TGI [4]: > 100 µM
TGI [5]: > 100 µM
TGI [6]: > 100 µM
TGI [7]: > 100 µM
TGI [8]: > 100 µM
TGI [9]: > 100 µM
TGI [10]: > 100 µM

COC/C=C\COC
TGI [2]: > 100 µM
TGI [3]: > 100 µM
TGI [4]: > 100 µM
TGI [5]: > 100 µM
TGI [6]: > 100 µM
TGI [7]: > 100 µM
TGI [8]: > 100 µM
TGI [9]: > 100 µM
TGI [10]: > 100 µM

N#Cc1ccccc1C(Cl)(Cl)c1cnccn1
TGI [1]: 38.4 µM
TGI [2]: > 100 µM
TGI [3]: > 100 µM
TGI [4]: > 100 µM
TGI [6]: > 100 µM
TGI [7]: > 100 µM
TGI [8]: > 100 µM
TGI [9]: > 100 µM
TGI [10]: > 100 µM

N/N=C1\C(=O)N(C2CCCCCC2)C(=O)C1C(=O)NC1CCCCCC1 (stereo unspecified)
TGI [1]: 60 µM
TGI [2]: > 100 µM
TGI [3]: > 100 µM
TGI [4]: 69.8 µM
TGI [5]: > 100 µM
TGI [6]: 65.6 µM
TGI [7]: > 100 µM
TGI [8]: > 100 µM
TGI [9]: > 10 µM

COc1ccc(C(c2c(O)c3ccccc3n(-c3ccccc3)c2=O)c2c(O)c3ccccc3n(-c3ccccc3)c2=O)cc1
TGI [1]: > 100 µM
TGI [4]: > 100 µM
TGI [5]: > 100 µM
TGI [6]: > 100 µM
TGI [7]: > 100 µM
TGI [8]: > 100 µM
TGI [9]: > 100 µM
